Source: patent US12616201B2, “Herbicidal compositions comprising isoxaflutole” (BASF SE, priority 2024, dated 2026)

Experiments:
[1] = test system: Datura stramonium; assay: Post-emergence application in field trials, DATST; type: in vivo; conditions: Table 4.2; DATST growth stage 14-16, height 5-10 cm; 42 DAT; 12.5 g ai/ha
Method: (§1) In the examples below, using the method of S. R. Colby (1967) “Calculating synergistic and antagonistic responses of herbicide combinations”, Weeds 15, p. 22ff., the value E, which is expected if the activity of the individual active compounds is only additive, was calculated:
(§2) [formula] • where • X=percent activity using active herbicide A at an application rate a; • Y=percent activity using active herbicide B (i.e. isoxaflutole) at an application rate b; • E=expected activity (in %) by A+B at application rates a+b.
(§3) If the value found experimentally is higher than the value E calculated according to Colby, a synergistic effect is present.
(§4) On field test sites, natural weed infestation or seeded weeds were treated post-emergence of the weeds.
(§5) In the field trials, the weeds were treated as indicated below.
(§6) In the following experiments, the herbicidal activity for the individual herbicidal compositions (solo and mixture applications) was assessed at the indicated days after treatment (DAT). The assessments for the damage on undesired weeds caused by the composition was carried out using a scale from 0 to 100%, compared to the untreated control plants. Here, 0 means no damage and 100 means complete destruction of the plants.
(§7) Herbicide A-1 and isoxaflutole (240 g/l SC) were, together with addition of 0.25 v/v % MSO (methylated sed oil) as adjuvant, formulated in water as distribution medium (water volume 200 l/ha) and sprayed with commercial flat fan nozzles.
(§8) Herbicide A-1, isoxaflutole (240 g/l SC) and saflufenacil (342 g/l) were, together with addition of 0.25 v/v % MSO (methylated sed oil) as adjuvant, formulated in water as distribution medium (water volume 200 l/ha) and sprayed with commercial flat fan nozzles.

[2] = test system: Echinochloa crus-galli; assay: Post-emergence application in field trials, ECHCG; type: in vivo
Method: as §1, §2, §3, §4, §5, §6, §7
(§9) Herbicide A-1 and isoxaflutole (240 g/l SC, Balance Flexx®) were, together with addition of 0.25 v/v % MSO (methylated sed oil) as adjuvant, formulated in water as distribution medium (water volume 200 l/ha) and sprayed with commercial flat fan nozzles.
as §8
(§10) Herbicide A-1, isoxaflutole (240 g/l SC), saflufenacil (342 g/l) and pyroxasulfone were, together with addition of 0.25 v/v % MSO (methylated sed oil) as adjuvant, formulated in water as distribution medium (water volume 200 l/ha) and sprayed with commercial flat fan nozzles.

[3] = test system: Lolium multiflorum; assay: Post-emergence application in field trials, LOLMU; type: in vivo
Method: as §1, §2, §3, §4, §5, §6, §10

[4] = test system: Zea mays; assay: Post-emergence application in field trials, ZEAMX; type: in vivo
Method: as §1, §2, §3, §4, §5, §6, §7, §9, §8, §10

[5] = test system: HORVW; assay: Post-emergence application in field trials, HORVW; type: in vivo, Hordeum vulgare
Method: as §1, §2, §3, §4, §5, §6, §10

[6] = test system: Amaranthus retroflexus; assay: Post-emergence application in field trials, AMARE; type: in vivo; conditions: 7 DAT
Method: as §1, §2, §3, §4, §5, §6, §9, §10

[7] = test system: Chenopodium album; assay: Post-emergence application in field trials, CHEAL; type: in vivo; conditions: Table 5.22; 7 DAT; height 10-25 cm; C-19 70 g ai/ha
Method: as §1, §2, §3, §4, §5
as §6, with “the plants. […]” for “the plants.”

[8] = Table 5.23, 21 DAT, height 20-25 cm, C-19 70 g ai/ha

Measured: % herbicidal activity

CC(C)N(C)S(=O)(=O)NC(=O)c1cc(-n2c(=O)cc(C(F)(F)F)n(C)c2=O)c(F)cc1Cl [C-1, saflufenacil]
40%: [1]
2%: [4]; Table 5.8, ZEAMX height 25-30 cm, 21 DAT, 12.5 g ai/ha
20%: [2]; Table 4.1, ECHCG growth stage 23-30, height 15-20 cm, 7 DAT, 12.5 g ai/ha | [2]; Table 5.11, 7 DAT, height 15-20 cm, C-1 12.5 g ai/ha | [3]; Table 5.1, LOLMU height 20-25 cm, 7 DAT, 12.5 g ai/ha | [3]; Table 5.8, LOLMU height 20-25 cm, 21 DAT, 12.5 g ai/ha
0%: [4]; Table 4.1, ZEAMX growth stage 15-16, height 25-30 cm, 7 DAT, 12.5 g ai/ha | [4]; Table 5.9, ZEAMX height 25-30 cm, 28 DAT, 12.5 g ai/ha | [5]; Table 5.2, HORVW height 20-25 cm, 21 DAT, 12.5 g ai/ha | [5]; Table 5.3, HORVW height 20-25 cm, 28 DAT, 12.5 g ai/ha | [5]; Table 5.8, HORVW height 20-25 cm, 21 DAT, 12.5 g ai/ha
8%: [4]; Table 5.11, 7 DAT, height 25-30 cm, C-1 12.5 g ai/ha | [4]; Table 5.7, ZEAMX height 25-30 cm, 7 DAT, 12.5 g ai/ha

Cn1nc(C(F)(F)F)c(CS(=O)(=O)C2=NOC(C)(C)C2)c1OC(F)F [C-19, pyroxasulfone]
4%: [4]; Table 5.23, 21 DAT, height 25-30 cm, C-19 70 g ai/ha | [4]; Table 5.5, ZEAMX height 25-30 cm, 21 DAT, 70 g ai/ha
0%: [4]; Table 5.24, 28 DAT, height 25-30 cm, C-19 70 g ai/ha | [4]; Table 5.6, ZEAMX height 25-30 cm, 28 DAT, 70 g ai/ha | [5]; Table 5.2, HORVW height 20-25 cm, 21 DAT, 70 g ai/ha | [5]; [8] | [5]; Table 5.24, 28 DAT, height 20-25 cm, C-19 70 g ai/ha | [5]; Table 5.3, HORVW height 20-25 cm, 28 DAT, 70 g ai/ha | [5]; Table 5.5, HORVW height 20-25 cm, 21 DAT, 70 g ai/ha | [5]; Table 5.6, HORVW height 20-25 cm, 28 DAT, 70 g ai/ha
20%: [2]; Table 5.4, ECHCG height 15-20 cm, 7 DAT, 70 g ai/ha | [3]; Table 5.1, LOLMU height 20-25 cm, 7 DAT, 70 g ai/ha | [3]; Table 5.22, 7 DAT, height 20-25 cm, C-19 70 g ai/ha | [3]; Table 5.4, LOLMU height 20-25 cm, 7 DAT, 70 g ai/ha
10%: [6]; Table 5.22, height 8-20 cm, C-19 70 g ai/ha | [6]; Table 5.4, AMARE height 8-20 cm, 70 g ai/ha | [7]
40%: [2]; Table 5.23, 21 DAT, height 15-20 cm, C-19 70 g ai/ha | [3]; [8]
5%: [4]; Table 5.10, 7 DAT, height 25-30 cm, C-19 70 g ai/ha | [4]; Table 5.22, 7 DAT, height 25-30 cm, C-19 70 g ai/ha | [4]; Table 5.4, ZEAMX height 25-30 cm, 7 DAT, 70 g ai/ha
30%: [2]; Table 5.24, 28 DAT, height 15-20 cm, C-19 70 g ai/ha
